Like-named read-outs stand apart in the source and are kept apart here.
Key:
[1] = biological target: GDP-bound KRAS protein (aa 1-169), containing both G12C and C118A amino acid substitutions (Homo sapiens, UniProt P01116, C118A/G12C); assay: Coupled nucleotide exchange assay (SOS-mediated, AlphaScreen); assay type: biochemical; conditions: for Coupled exchange IC50 (5 min): 5 min compound pre-incubation; for Coupled exchange IC50 (2 h): 2 h compound pre-incubation
[2] = test system: Phosphorylation of ERK1/2 in MIA PaCa-2 cells; assay: Phospho-ERK1/2 MSD assay in MIA PaCa-2 cells; assay type: cell-based
Method in brief: (§1)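 MIA PaCa-2 or A549 cells were treated with a compound dose-response titration for 2 or 4 h at 37 °C, then stimulated with 10 ng/mL EGF for 10 min. Phospho-ERK1/2 in RIPA lysates was measured by MSD whole-cell lysate immunoassay, and IC50 came from a 4-parameter logistic fit.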

[3] = test system: Phosphorylation of ERK1/2 in A549 cells; assay: Phospho-ERK1/2 MSD assay in A549 cells; assay type: cell-based; conditions: Homo sapiens
Method in brief: as §1

[4] = Homo sapiens, MIA PaCa-2, 2 h, read-out: p-ERK IC50 (2 h; MIA PaCa-2), 2 h compound treatment
[5] = A549, 2 h, read-out: p-ERK IC50 (2 h; A549), 2 h compound treatment
[6] = Homo sapiens, MIA PaCa-2, 4 h, read-out: p-ERK IC50 (4 h; MIA PaCa-2), 4 h compound treatment
[7] = A549, 4 h, read-out: p-ERK IC50 (4 h; A549), 4 h compound treatment

Sequence of GDP-bound KRAS protein (aa 1-169), containing both G12C and C118A amino acid substitutions (P01116 1-169 isoform P01116-2 G12C/C118A): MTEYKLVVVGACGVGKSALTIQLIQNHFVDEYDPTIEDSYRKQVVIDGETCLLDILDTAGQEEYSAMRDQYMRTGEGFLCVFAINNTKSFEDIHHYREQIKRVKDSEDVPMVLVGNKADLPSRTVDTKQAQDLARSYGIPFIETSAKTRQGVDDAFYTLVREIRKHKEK

Compound	Coupled exchange IC50 (5 min) [1]	IC50 [2, 4]	IC50 [3, 5]	Coupled exchange IC50 (2 h) [1]	IC50 [2, 6]	IC50 [3, 7]	IC50 ([2]; read-out: p-ERK IC50 (2 h; MIA PaCa-2), 2 h compound treatment)	IC50 ([2]; read-out: p-ERK IC50 (4 h; MIA PaCa-2), 4 h compound treatment)
C=CC(=O)N1CCN(c2nc(=O)n(-c3ccccc3CC)c3nc(-c4ccccc4F)c(Cl)cc23)[C@@H](C)C1 [Example 54-31, 6-chloro-1-(2-ethylphenyl)-7-(2-fluorophenyl)-4-((2S)-2-methyl-4-(2-propenoyl)-1-piperazinyl) pyrido[2,3-d]pyrimidin-2(1H)-one]	0.395 | nda μM	237 nM	≥ 10000 nM					
C=CC(=O)N1CCN(c2nc(=O)n(CC3(C(F)(F)F)CC3)c3nc(-c4c(O)cccc4F)c(Cl)cc23)[C@@H](C)C1 [Example 54-5, 6-chloro-7-(2-fluoro-6-hydroxyphenyl)-4-((2S)-2-methyl-4-(2-propenoyl)-1-piperazinyl)-1-((1-(trifluoromethyl)cyclopropyl)methyl)pyrido [2,3-d]pyrimidin-2(1H)-one]	0.445 | nda μM	554 nM	≥ 10000 nM					
C=CC(=O)N1CCN(c2nc(=O)n(CC(C)(C)C)c3nc(-c4c(O)cccc4F)c(Cl)cc23)CC1 [Example 60-5, 6-chloro-1-(2,2-dimethylpropyl)-7-(2-fluoro-6-hydroxyphenyl)-4-(4-(2-propenoyl)-1-piperazinyl)pyrido[2,3-d]pyrimidin-2(1H)-one]	0.589 µM	492 nM	52400 nM	102 nM	447 nM	60500 nM		
C=CC(=O)N1CCN(c2nc(=O)n(CC(C)(C)C(F)(F)F)c3nc(-c4c(C)ccc5[nH]ncc45)c(Cl)cc23)[C@@H](C)C1 [Example 60-34, 6-chloro-7-(5-methyl-1H-indazol-4-yl)-4-((2S)-2-methyl-4-(2-propenoyl)-1-piperazinyl)-1-(3,3,3-trifluoro-2,2-dimethylpropyl)pyrido[2,3-d]pyrimidin-2(1H)-one]	0.478 | nda μM	508 nM	≥ 10000 nM					
C=CC(=O)N1CCN(c2nc(=O)n(-c3ccccc3C(C)C)c3nc(-c4c(O)cccc4F)c(F)cc23)[C@@H](C)C1 (single isomer, unassigned) [Example 57-6-2]	0.208 | nda μM		≥ 10000 nM				99 nM	
C=CC(=O)N1CCN(c2nc(=O)n(-c3ccc(OCCN=[N+]=[N-])cc3C(C)C)c3nc(N4CCCCC4)c(Cl)cc23)[C@@H](C)C1 [Example 117, 1-(4-(2-Azidoethoxy)-2-(2-propanyl)phenyl)-6-chloro-4-((2S)-2-methyl-4-(2-propenoyl)-1-piperazinyl)-7-(1-piperidinyl)pyrido[2,3-d]pyrimidin-2(1H)-one]		4880 nM	≥ 10000 nM	nda | 0.916 μM				
C=CC(=O)N1CCN(c2nc(=O)n(CC3(C(F)(F)F)CC3)c3nc(-c4c(O)cccc4F)c(Cl)cc23)CC1 [Example 60-3, 6-chloro-7-(2-fluoro-6-hydroxyphenyl)-4-(4-(2-propenoyl)-1-piperazinyl)-1-((1-(trifluoromethyl)cyclopropyl)methyl)pyrido[2,3-d]pyrimidin-2(1H)-one]	1.02 µM	657 nM	≥ 100000 nM	101 nM	552 nM	65000 nM		
C=CC(=O)N1CCN(c2nc(=O)n(-c3c(CC)cccc3CC)c3nc(Cl)c(Cl)cc23)[C@@H](C)C1 [Example 54-61, 6,7-dichloro-1-(2,6-diethylphenyl)-4-((2S)-2-methyl-4-(2-propenoyl)-1-piperazinyl) pyrido[2,3-d]pyrimidin-2(1H)-one]				nda | 0.379 μM	1370 nM	≥ 11100 nM		
C=CC(=O)N1CCN(c2nc(=O)n(-c3ccccc3C3CCC3)c3nc(-c4c(O)cccc4F)c(Cl)cc23)[C@@H](C)C1 [Example 54-10, 6-chloro-1-(2-cyclobutylphenyl)-7-(2-flnoro-6-hydroxyphenyl)-4-((2S)-2-methyl-4-(2-propenoyl)-1-piperazinyl) pyrido[2,3-d]pyrimidin-2(1H)-one]	0.185 | nda μM	182 nM	≥ 10000 nM					
C=CC(=O)N1CCN(c2nc(=O)n(-c3c(CC)cccc3CC)c3nc(-c4ccccc4F)c(Cl)cc23)[C@@H](C)C1 [Example 54-60, 6-ehloro-1-(2,6-diethylphenyl)-7-(2-fluorophenyl)-4-((2S)-2-methyl-4-(2-propenoyl)-1-piperazinyl) pyrido[2,3-d]pyrimidin-2(1H)-one]	0.216 µM	145 nM	≥ 10000 nM	93 nM	91 nM	≥ 11100 nM		
C=CC(=O)N1CCN(c2nc(=O)n(-c3c(C)cc(N(C)C)cc3C(C)C)c3nc(-c4ccccc4F)c(Cl)cc23)[C@@H](C)C1 (single isomer, unassigned) [Example 55-16-2]	0.039 | nda μM	123 nM	≥ 10000 nM					
C=CC(=O)N1CCN(c2nc(=O)n(C(CC)CC)c3nc(-c4c(C)ccc5[nH]ncc45)c(Cl)cc23)[C@@H](C)C1 [Example 60-32, 6-chloro-7-(5-methyl-1H-indazol-4-yl)-4-((2S)-2-methyl-4-(2-propenoyl)-1-piperazinyl)-1-(3-pentanyl)pyrido[2,3-d]pyrimidin-2(1H)-one]	0.392 µM	221 nM	87400 nM	157 nM	213 nM	63900 nM		
C=CC(=O)N1CCN(c2nc(=O)n(-c3ccccc3C(C)C)c3cc(Br)c(Cl)cc23)[C@@H](C)C1 (single isomer, unassigned) [Example 9-17-2]	1.66 µM	1060 nM	≥ 10000 nM	163 nM		≥ 100000 nM		859 nM
C=CC(=O)N1CCN(c2nc(=O)n(C(C(C)C)C(C)C)c3nc(-c4ccccc4F)c(Cl)cc23)CC1 [Example 60-31, 6-chloro-1-(2,4-dimethyl-3-pentanyl)-7-(2-fluorophenyl)-4-(4-(2-propenoyl)-1-piperazinyl)pyrido[2,3-d]pyrimidin-2(1H)-one]	0.919 µM	1000 nM	40900 nM	115 nM	710 nM	86600 nM		
C=CC(=O)N1CCN(c2nc(=O)n(-c3ccccc3Cl)c3nc(-c4ccccc4F)c(Cl)cc23)[C@@H](C)C1 [Example 54-32, 6-chloro-1-(2-chlorophenyl)-7-(2-fluorophenyl)-4-((2S)-2-methyl-4-(2-propenoyl)-1-piperazinyl) pyrido[2,3-d]pyrimidin-2(1H)-one]	1.963 | nda μM	796 nM	≥ 10000 nM					
C=CC(=O)N1CCN(c2nc(=O)n(-c3ccccc3C3CCC3)c3nc(-c4ccccc4F)c(Cl)cc23)[C@@H](C)C1 [Example 54-12, 6-chloro-1-(2-cydobutyl-phenyl)-7-(2-fluorophenyl)-4-((2S)-2-methyl-4-(2-propenoyl)-1-piperazinyl) pyrido[2,3-d]pyrirnidin-2(1H)-one]	0.289 | nda μM	162 nM	≥ 10000 nM					
C=CC(=O)N1CCN(c2nc(=O)n(-c3c(C)ncnc3C(C)C)c3nc(-c4ccccc4F)c(Cl)cc23)[C@@H](C)C1 (single isomer, unassigned) [Example 55-13-2]	0.02 | nda μM	55 nM	≥ 10000 nM					
C=CC(=O)N1CCN(c2nc(=O)n(-c3c(C4CC4)ncnc3C3CC3)c3nc(-c4ccccc4F)c(Cl)cc23)[C@@H](C)C1 [Example 60-11, 6-chloro-1-(4,6-dicyclopropyl-5-pyrimidinyl)-7-(2-fluorophenyl)-4-((2S)-2-methyl-4-(2-propenoyl)-1-piperazinyl)pyrido[2,3-d]pyrimidin-2(1H)-one]	0.08 | nda μM	63 nM	≥ 10000 nM					
C=CC(=O)N1CCN(c2nc(=O)n(CC(C)(C)C(F)(F)F)c3nc(-c4ccccc4F)c(Cl)cc23)[C@@H](C)C1 [Example 60-33, 6-chloro-7-(2-fluorophenyl)-4-((2S)-2-methyl-4-(2-propenoyl)-1-piperazinyl)-1-(3,3,3-trifluoro-2,2-dimethylpropyl)pyrido[2,3-d]pyrimidin-2(1H)-one]	1.24 µM	1700 nM	≥ 100000 nM	139 nM				
C=CC(=O)N1CCN(c2nc(=O)n(-c3c(C)ncnc3C)c3nc(-c4c(O)cccc4F)c(Cl)cc23)[C@@H](C)C1 [Example 54-48, 6-chloro-1-(4,6-dimethyl-5-pyrimidinyl)-7-(2-fluoro-6-hydroxyphenyl)-4-((2S)-2-methyl-4-(2-propenoyl)-1-piperazinyl) pyrido[2,3-d]pyrimidin-2(1H)-one]	0.779 | nda μM	2380 nM	≥ 10000 nM					
C=CC(=O)N1CCN(c2nc(=O)n(-c3c(Cl)cccc3Cl)c3nc(-c4c(O)cccc4F)c(Cl)cc23)[C@@H](C)C1 [Example 54-33, 6-chloro-1-(2,6-dichlorophenyl)-7-(2-fluoro-6-hydroxyphenyl)-4-((2S)-2-methyl-4-(2-propenoyl)-1-piperazinyl) pyrido[2,3-d]pyrimidin-2(1H)-one]	0.176 | nda μM	215 nM	≥ 10000 nM					

— patent publication US11090304B2 (Amgen Inc., priority 2018, dated 2021)
